Experimental data published in patent publication US20090054259A1, “METHODS FOR INDUCING COMPLETE APOPTOSIS OF LIVER CELLS EXPRESSING HBCHI PROTEIN AND SCREENING FOR SUBSTANCES OR GENES THAT INHIBIT THE APOPTOSIS” (priority 2004, published 2009).
Read-outs that look alike come from different tables or passages of the source.

How the values were obtained:
NF-κB = settings: through inhibiting the phosphorylation of IκB; Wahl et al. 1998; cited from earlier work
Chang V9 cells [1] = assay: Induction of apoptosis by sulfasalazine in the control liver cell line not expressing HBx protein; format: cell-based, human; settings: for extent of apoptosis: 120 h
Chang X31 cells [2] = format: cell-based, human; settings: for extent of apoptosis: 120 h
Chang V9 cells [3] = assay: DAPI staining, morphology of apoptosis; format: cell-based, human; settings: 1.3 mM sulfasalazine, 72 hours
Protocol: (§1) Chang X 31 and Chang V9 cells were split on 6-well plates, and […], treated with 1.3 mM sulfasalazine.
(§2) 72 hours after the sulfasalzine treatment, DAPI staining was performed to observe apoptosis. The cells were directly fixed in the cold solution consisting of 1% […] and 0.2% glutaraldehyde for 5 min, washed twice with PBS and then stained with 1 mg/ml of DAPI solution (Sigma, USA). The cells were incubated for 5 hours in dark.
(§3) The stained cells were examined using a fluorescent microscopy.

Chang X31 cells [4] = assay: DAPI staining, morphology of apoptosis; format: cell-based, human; settings: 1.3 mM sulfasalazine, 72 hours
Protocol: as §1, §2, §3

Chang X31 cells [5] = format: cell-based, human

O=C(O)c1cc(/N=N/c2ccc(S(=O)(=O)Nc3ccccn3)cc2)ccc1O [sulfasalazine]
effect on TNF-α-induced nuclear translocation of NF-κB (NF-κB): prevents TNF-α-induced nuclear translocation of NF-κB
survival rate (Chang V9 cells [1]; 1.0 mM sulfasalazine, re-treated at 48 h, read 72 h after re-treatment (120 h)): at least 50%
extent of apoptosis (Chang V9 cells [1]; 1.3 mM sulfasalazine): 10%
extent of apoptosis (Chang V9 cells [1]; at least 1.5 mM sulfasalazine): at least 20%
survival rate (Chang X31 cells [2]; 1.0 mM sulfasalazine, re-treated at 48 h, read 72 h after re-treatment (120 h), […]): at least 50%
extent of apoptosis (Chang X31 cells [2]; 1.3 mM sulfasalazine, […]): 100%
extent of apoptosis (Chang X31 cells [2]; at least 1.5 mM sulfasalazine, […]): 100%
concentration inducing complete apoptosis of Chang X31 cells (Chang X31 cells [2]; complete (100%) apoptosis within 120 hours): at least 1.3 mM
typical features of apoptosis (nuclear condensation, shrinkage, fragmentation) (Chang V9 cells [3]): not in Chang V9
typical features of apoptosis (nuclear condensation, shrinkage, fragmentation) (Chang X31 cells [4]): observed in only Chang X 31

N[C@@H](CCC(=O)N[C@@H](CS)C(=O)NCC(=O)O)C(=O)O [GSH, glutathione]
apoptosis (Chang X31 cells [5]): only partial apoptosis
inhibition of the apoptosis of the liver cell line (conclusion) (Chang X31 cells [5]): effective in inhibiting the apoptosis

CN[C@@H]1C[C@H]2O[C@@](C)([C@@H]1OC)n1c3ccccc3c3c4c(c5c6ccccc6n2c5c31)C(=O)NC4 [STS, staurosporine]
apoptosis (Chang X31 cells [5]; 0.5 mM STS (group III) before 1.3 mM sulfasalazine, 120 h, crystal violet): 100%

CC(=O)N[C@@H](CS)C(=O)O [NAC, N-acetyl-L-cystein]
apoptosis (Chang X31 cells [5]; 2 mM GSH (group I), 1 mM NAC (group II) before 1.3 mM sulfasalazine, 120 h, crystal violet): only partial apoptosis
inhibition of the apoptosis of the liver cell line (conclusion) (Chang X31 cells [5]; 2 mM GSH, 1 mM NAC, 0.5 mM STS, […]): effective in inhibiting the apoptosis
